Results as given in article PMC6054100, “Exploring the chemical space of the lysine-binding pocket of the first kringle domain of hepatocyte growth factor/scatter factor (HGF/SF) yields a new class of inhibitors of HGF/SF-MET binding” (Chemical Science, 2015).

What was measured:
Design in all cases: made in house; host or cells: Pichia pastoris
NK1 [1] = biological target: T1, NK1 (Homo sapiens, UniProt P14210); assay: 1H-15N TROSY-HSQC NMR chemical shift titration of 15N-labelled NK1; format: binding
Experimental: Ligand screening was performed by monitoring the chemical shift variations in ^1H-^15N TROSY-HSQC NMR spectra of the uniformly [^15N]-labelled NK1 protein (Fragai et al. 2015, in prep.) upon the addition of increasing concentrations of the investigated compounds.[43]–[45] The experiments were performed using 0.18 mM protein samples in 25 mM Tris, 100 mM NaCl and 0.01% sodium azide, at pH 7.2 with 10% D2O. The spectra were recorded at 310 K on a Bruker AVANCE 900 MHz spectrometer equipped with a TXI cryo-probe. Sample solutions were prepared from 1 M or 100 mM DMSO stock solutions of the ligands. The dissociation constant values (KD) were calculated by plotting the weighted average ^1H and ^15N chemical shifts of the residues experiencing significant variations as a function of ligand concentration added during the titration and considering the one site binding model.[46]

NK1 [2] = biological target: T1, NK1; assay: SPR steady-state binding to immobilized NK1 (Biacore T100)
Experimental: Binding constants of piperazine-like compounds and fragments were determined using a Biacore T100 instrument. NK1 was immobilized on a CM5 chip by amine coupling to a density of 6000 RU. Compounds were stored as 100 mM stock solutions in water and serial dilutions were prepared in the running buffer (PBS pH 7.4, 0.05% Tween 20). The compound solutions were injected onto the surface of the chip at a flow rate of 30 μL min^–1, contact time was 1 min and dissociation time 1 min. Sensorgrams were analysed using the Biacore T100 evaluation software and the binding constants determined.

NK1 [3] = biological target: T1, NK1; assay: SPR fragment library screening against NK1; format: binding; settings: for SPR response: normalised relative value against NK1
Experimental: Supplementary Materials and Methods
Fragment library screening and data analysis
Met567 (soluble truncated f ragment of the MET ectodomain, residues 25- 567), NK1 and t he SPH domain were immobilized on CM5 chips by amine coupling. NK1 was diluted into 10 m M phosphate pH 7.0 and the SPH domain into 10 mM acetate pH 5.5 to a final concentration of 2.5 μM and 1 μM, respectively, for coupling. The immobilization wizard within the Biacore T100 software was set to “aim for immobiliz ed level” of 8000 RU to achieve complete saturation of the chip surface.
W ith minor deviations, the procedure and conditions outlined below were used f or a ll screening s of an in-house fragment library of 1338 members against individual target proteins. The running buffer was PBS pH 7.4, 0.05% Tween 20, 0.25% DMSO (1% DMSO for Met567). Fragments were stored as 100 mM stock solutions in DMSO. Prior to screening, fragment samples were diluted to 500 μM (1 mM f or Met567) in running buffer.
Screening was performed in 96- we ll plates at a flow rate of 30 μl min-1 with 1 min sample injection f ollowed by dissociation f or 1 min and surf ace regeneration using 1 M NaCl f or 30 […]
post-regeneration baseline exceeded the pre- sample baseline by more than 10 RU, a second regeneration cycle with 50% ethylene glycol was used. In order to be able to correct for small variations in DMSO concentration between samples, eight solvent samples ranging from 0.012 to 1.5% DMSO were injected every 40th cycle. To monitor the binding capacity of the NK1, SPH and Met567 surfaces throughout the screening, injections of 500 μM HEPES (NK1), 0.25 μM Met567 (SPH) and 0.2 μM NK1 and 1% DMSO (Met567) were carried out every 40th cycle. The flow cell temperature was 25°C. NK1 and the SPH domain were immobilized on the same chip (channels 2 and 3 respectively) and were theref ore screened in parallel. Met567 was screened separately and results are published in an accompanying paper (W in t er et al. 2015, in revision).
For data analysis, fir st, all responses were reference and solvent corrected. 1 Next, equilibrium binding for every fragment was determined and hits established by applying several filters: sensorgram shape, upper and lower threshold. Typical sensorgrams from fragment screening show “square curves” in SPR due to the fast on and off rates and fragments not showing this response were discarded from further analysis. Binding levels are represented as response units (RU) but the SPR signal is a convolution of multiple parameters including target coupling density, target -binding activity, target molecular weight and molecular weight of each injected fragment. To be able to identif y hits accurately and to be able to compare responses between different plates and targets, data were normalised against these factors. First the theoretical maximum response for each fragment was calculated using equation 1:
RRmmm = CCCCCCCC ddCdCdd× MMffmCmdCd (Equation 1)
This RUmax value diff ers for each protein target because it depends on the molecular weight of the protein and the amount of protein immobilized on the chip (coupling density). The RUmax was then used to calculate the normalised relative SPR response:
NNNNNNNNNN NNNNr NrN SSR NNNrNrNN = RRcppppcppc× 100% (Equation 2) […]
fragment should cause upon binding. 100% response would be 1:1 binding wit h levels above 100% implying over-stoichiometric binding. […]
Fragment library screening to identify small molecule binders

T1 sequence (P14210 32-210 isoform P14210-6 limits assumed): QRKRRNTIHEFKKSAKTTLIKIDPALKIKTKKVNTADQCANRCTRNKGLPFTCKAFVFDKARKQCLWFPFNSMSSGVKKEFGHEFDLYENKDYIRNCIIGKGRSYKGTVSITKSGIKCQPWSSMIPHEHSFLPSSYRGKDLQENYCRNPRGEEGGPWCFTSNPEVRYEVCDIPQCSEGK

- variation in chemical shifts for NK1 residues (NK1 [1]; 1H-15N TROSY-HSQC, residues in and around the lysine-binding pocket): showed variation in chemical shifts
- Kd (NK1 [1]; NMR chemical shift titration, read-out: KD): 110 µM
- affinity for NK1 relative to HEPES (NK1 [2]; fold better than HEPES): about ten times better affinity
- Kd (NK1 [2]; steady-state binding constant from SPR, fragment hits (Table 3, text), read-out: KD): 310 ± 40 µM
- Ranking order (NK1 [3]; based on fragment screening, rank among the 71 NK1 hits (ESI Tables S3-S7)): 1
- SPR response (NK1 [3]; fragments 500 μM (ESI Tables S3-S7)): 215%
- SPR response (NK1 [3]; initial fragment screening, fragments 500 μM (Table 3)): 215%
Structure (SMILES): O=C(O)CCc1ccco1 [MB605]
